Activity calls are given as the source filed them.
Columns and labels:
[1] = NIH-3T3 fibroblast cytotoxicity, dose response, cytotoxicity control, cell-based, fluorescence, Alamar Blue, secondary assay (AID 2327); format: functional;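 note: NIH-3T3 mouse fibroblasts cultured with fluconazole at 8 µg/mL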
[2] = C. albicans growth with fluconazole, confirmation, fluorescence, retest (AID 2467); format: functional, cell-based
[3] = Shn3 3'UTR reporter inhibitors, dose response, cell-based, Clone20 osteoblasts, firefly luciferase, cherry-picked (AID 624132); format: functional;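 note: firefly luciferase luminescence from reporter carrying the Shn3 3'UTR in osteoblasts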
[4] = control 3'UTR Renilla luciferase suppression, dose response, counter-screen for Shn3 inhibitor project, cell-based, Clone20-Shn3RL, cherry-picked (AID 624133); format: functional
[5] = HepG2 cell cytotoxicity, dose response, cytotoxicity control for Shn3 inhibitor project, CellTiter-Glo, cherry-picked (AID 624134); format: functional, cell-based
Cytochrome P450 2C9 = Cytochrome P450 2C9 (Homo sapiens, UniProt P11712)
Cytochrome P450 1A2 = biological target: T1, Cytochrome P450 1A2 (Homo sapiens, UniProt P05177);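 note: PubChem cytochrome P450 panel assay, CYP1A2 panel member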
T1 sequence (P05177 whole entry): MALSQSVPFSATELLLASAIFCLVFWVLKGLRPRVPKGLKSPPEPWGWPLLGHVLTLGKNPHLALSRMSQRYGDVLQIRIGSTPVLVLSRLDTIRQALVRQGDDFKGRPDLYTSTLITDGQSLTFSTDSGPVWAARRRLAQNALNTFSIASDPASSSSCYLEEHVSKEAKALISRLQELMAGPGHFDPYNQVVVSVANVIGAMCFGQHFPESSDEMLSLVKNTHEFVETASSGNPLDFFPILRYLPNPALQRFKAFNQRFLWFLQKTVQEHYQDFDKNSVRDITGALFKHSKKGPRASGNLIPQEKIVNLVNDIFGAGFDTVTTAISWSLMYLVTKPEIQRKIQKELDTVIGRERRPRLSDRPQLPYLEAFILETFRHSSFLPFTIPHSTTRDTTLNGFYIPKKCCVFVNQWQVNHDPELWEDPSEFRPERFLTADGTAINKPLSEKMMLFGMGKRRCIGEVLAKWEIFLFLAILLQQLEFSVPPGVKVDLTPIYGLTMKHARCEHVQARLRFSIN

Streptococcus = assay: Group A Streptococcus viability loss, dose response, counter-screen for streptokinase expression inhibitor project, luminescence, BacTiterGlo (AID 1915); format: functional, organism-based;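 note: potency for reduction of bacterial viability or growth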
[6] = HEp-2 cell cytotoxicity, dose response, cytotoxicity control for RSV inhibitor project, HTS (AID 2410); format: functional; details: human respiratory syncytial virus
Streptokinase A = biological target: T2, Streptokinase A (Streptococcus pyogenes serotype M1, UniProt P10520); assay: S. pyogenes streptokinase expression inhibitors, potency, dose response, plasminogen activation absorbance, OD405 (AID 1914); format: functional, Streptococcus pyogenes M1 GAS;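 note: secreted streptokinase activity via plasminogen activation per viability signal from cell pellet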
T2 sequence (P10520 whole entry): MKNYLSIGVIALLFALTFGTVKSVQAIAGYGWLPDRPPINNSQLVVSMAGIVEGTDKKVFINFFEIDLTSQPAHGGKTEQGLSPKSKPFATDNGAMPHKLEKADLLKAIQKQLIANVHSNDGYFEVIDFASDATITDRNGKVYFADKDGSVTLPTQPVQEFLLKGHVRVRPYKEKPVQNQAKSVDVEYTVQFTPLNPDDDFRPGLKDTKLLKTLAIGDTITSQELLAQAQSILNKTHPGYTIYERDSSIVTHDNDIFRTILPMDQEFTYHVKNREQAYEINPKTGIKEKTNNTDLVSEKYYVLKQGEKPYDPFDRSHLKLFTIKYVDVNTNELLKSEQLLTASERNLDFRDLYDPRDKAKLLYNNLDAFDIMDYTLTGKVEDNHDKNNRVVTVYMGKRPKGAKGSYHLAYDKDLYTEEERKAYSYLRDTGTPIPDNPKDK

[7] = tested on: Streptococcus sp. 'group A'; assay: growth inhibition of control SK(-) GAS strain, dose response, counter-screen for streptokinase expression inhibitor project, luminescence, kanamycin, BacTiterGlo, confirmation (AID 1900); format: functional, organism-based
Cytochrome P450 2C19 = Cytochrome P450 2C19 (Homo sapiens, UniProt P33261); assay: Cytochrome panel assay with activity outcomes. Panel member name: p450-cyp2c19 Compounds with AC50 equal or less than 10 uM are considered active; format: functional
[8] = biological target: T3, Corticotropin-releasing factor receptor 2/Corticotropin-releasing factor-binding protein (Homo sapiens, UniProt P24387+Q13324); assay: activators of CRF receptor 2 with binding protein – uHTS hits, confirmation (AID 602473); format: functional; details: read-out: EC50_Mean
T3 sequence (Q13324 whole entry): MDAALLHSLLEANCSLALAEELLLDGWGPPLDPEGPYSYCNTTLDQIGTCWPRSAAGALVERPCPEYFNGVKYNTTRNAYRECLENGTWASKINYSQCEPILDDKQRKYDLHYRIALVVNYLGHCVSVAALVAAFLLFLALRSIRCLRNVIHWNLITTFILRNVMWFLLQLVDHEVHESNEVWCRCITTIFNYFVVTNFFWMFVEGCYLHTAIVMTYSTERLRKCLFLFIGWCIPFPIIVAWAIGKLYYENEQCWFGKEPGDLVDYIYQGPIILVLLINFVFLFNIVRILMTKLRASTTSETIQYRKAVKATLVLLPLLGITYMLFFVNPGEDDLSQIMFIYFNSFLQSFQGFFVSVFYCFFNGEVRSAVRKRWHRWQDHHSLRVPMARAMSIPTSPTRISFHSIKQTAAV
T3 sequence (P24387 whole entry): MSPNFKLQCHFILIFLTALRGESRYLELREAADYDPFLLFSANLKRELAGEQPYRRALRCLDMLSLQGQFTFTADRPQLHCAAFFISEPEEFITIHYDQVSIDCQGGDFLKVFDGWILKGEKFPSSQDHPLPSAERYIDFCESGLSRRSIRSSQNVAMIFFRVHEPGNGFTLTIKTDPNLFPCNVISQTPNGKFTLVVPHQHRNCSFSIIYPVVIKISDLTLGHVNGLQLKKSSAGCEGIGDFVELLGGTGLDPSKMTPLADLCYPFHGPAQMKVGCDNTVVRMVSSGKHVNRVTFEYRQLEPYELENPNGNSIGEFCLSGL

[9] = biological target: T3, Corticotropin-releasing factor receptor 2/Corticotropin-releasing factor-binding protein; assay: Dose Response confirmation of uHTS hits for small molecule antagonists of the CRF-binding protein and CRF-R2 receptor complex.; format: functional; details: read-out: IC50_Mean
[10] = inhibitors of intracellular T. cruzi replication, confirmation, NIH3T3 host cells, beta-gal luminescence (AID 2044); format: functional, cell-based;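 note: intracellular parasites grown in NIH/3T3 mouse fibroblasts as host cells; luminescent beta-galactosidase reporter signal from transgenic T. cruzi replicating inside host cells; inhibitors lower the luminescence signal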
[11] = cytotoxicity toward NIH3T3 fibroblasts, dose response, counter-screen, cell-based, ATP luminescence, mouse fibroblasts (AID 2010); format: functional;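 note: cells exposed to compound for about 90 hours before reading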
Cytochrome P450 3A4 = Cytochrome P450 3A4 (Homo sapiens, UniProt P08684);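 note: CYP3A4 tested as one member of a cytochrome P450 panel screen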
[12] = growth suppression of PTEN-null colon cells, dose response, cell-based, HCT116 PTEN knockout (AID 1047); format: functional;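 note: HCT116 colon tumor cells with PTEN knocked out; cells exposed to compound for 60 hours before readout; potency for loss of cell viability measured by luminescence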
[13] = growth suppression of beta-catenin-knockout colon cells, dose response, cell-based, HCT116, human colon tumor (AID 1045); format: functional;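 note: HCT116 colon tumor cells with beta catenin knocked out; cells exposed to compound for 60 hours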

Chain of Cytochrome P450 2C9 (P11712 whole entry): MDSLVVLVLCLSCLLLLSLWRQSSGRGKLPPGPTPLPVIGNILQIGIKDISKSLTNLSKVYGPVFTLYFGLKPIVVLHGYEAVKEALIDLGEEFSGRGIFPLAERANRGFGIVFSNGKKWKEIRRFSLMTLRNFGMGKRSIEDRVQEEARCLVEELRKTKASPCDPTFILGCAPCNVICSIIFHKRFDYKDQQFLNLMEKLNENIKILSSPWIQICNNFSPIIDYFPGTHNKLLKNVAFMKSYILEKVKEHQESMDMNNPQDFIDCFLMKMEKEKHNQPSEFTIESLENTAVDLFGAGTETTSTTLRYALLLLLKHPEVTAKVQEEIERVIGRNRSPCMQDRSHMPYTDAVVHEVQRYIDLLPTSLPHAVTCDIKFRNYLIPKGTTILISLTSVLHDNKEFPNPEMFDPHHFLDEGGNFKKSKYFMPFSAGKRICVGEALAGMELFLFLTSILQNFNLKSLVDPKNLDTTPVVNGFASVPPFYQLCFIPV
Chain of Cytochrome P450 2C19 (P33261 whole entry): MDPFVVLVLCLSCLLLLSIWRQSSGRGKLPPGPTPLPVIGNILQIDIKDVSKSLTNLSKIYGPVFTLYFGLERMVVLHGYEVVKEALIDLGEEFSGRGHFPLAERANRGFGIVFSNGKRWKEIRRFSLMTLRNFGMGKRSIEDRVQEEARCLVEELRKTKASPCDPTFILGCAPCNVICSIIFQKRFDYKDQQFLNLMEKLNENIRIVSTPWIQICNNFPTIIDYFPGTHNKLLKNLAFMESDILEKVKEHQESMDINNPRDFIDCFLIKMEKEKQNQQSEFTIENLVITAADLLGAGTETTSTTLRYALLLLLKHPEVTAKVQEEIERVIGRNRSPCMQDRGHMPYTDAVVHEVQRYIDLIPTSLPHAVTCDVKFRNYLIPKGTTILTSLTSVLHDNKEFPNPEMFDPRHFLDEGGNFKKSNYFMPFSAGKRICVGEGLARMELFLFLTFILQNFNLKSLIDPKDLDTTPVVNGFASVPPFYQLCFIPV
Chain of Cytochrome P450 3A4 (P08684 whole entry): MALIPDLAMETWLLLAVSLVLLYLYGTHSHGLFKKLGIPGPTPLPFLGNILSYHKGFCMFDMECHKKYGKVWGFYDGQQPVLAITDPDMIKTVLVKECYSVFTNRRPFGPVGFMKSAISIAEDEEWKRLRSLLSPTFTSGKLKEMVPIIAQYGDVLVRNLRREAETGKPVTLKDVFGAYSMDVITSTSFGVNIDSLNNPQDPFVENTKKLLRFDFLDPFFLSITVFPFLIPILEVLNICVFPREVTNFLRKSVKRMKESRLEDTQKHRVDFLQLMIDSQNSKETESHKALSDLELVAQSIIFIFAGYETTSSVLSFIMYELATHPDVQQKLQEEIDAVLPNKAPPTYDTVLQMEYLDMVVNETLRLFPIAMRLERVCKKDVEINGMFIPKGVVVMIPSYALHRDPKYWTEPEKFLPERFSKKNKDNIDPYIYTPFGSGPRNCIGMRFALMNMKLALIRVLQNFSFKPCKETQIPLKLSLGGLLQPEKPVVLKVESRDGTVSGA

Row | SMILES | AC50 (Cytochrome P450 2C9) | EC50 (Streptococcus) | EC50 (Streptokinase A) | EC50 [7] | also measured
1 | CC1(C)CC(=O)C=C(Nc2ccc([N+](=O)[O-])cc2)C1 |  |  |  |  | EC50 [1]: > 160 µM (inactive); EC50 [2]: 2.93 µM (active)
2 | COc1ccc(CC(N)c2csc(NC(=O)c3cc(C(C)(C)C)nn3Cc3ccccc3)n2)cc1 (stereo not drawn) |  |  |  |  | AC50 [3]: 9.53 µM (active); AC50 [4]: 22.9 µM (active); AC50 [5]: 9.69 µM (active)
3 | CCOc1ccc(C(=O)O)cc1OC | inconclusive |  |  |  | 
4 | Cc1cc(C)c(C#N)c(SC[S+]([O-])c2ccc(C(C)(C)C)cc2)n1 (stereo not drawn) | inconclusive |  |  |  | 
5 | O=C(NCc1ccccn1)C1CC(c2ccc(Cl)c(Cl)c2)=NO1 (stereo not drawn) | inconclusive |  |  |  | AC50 (Cytochrome P450 1A2): 4.47 µM (inconclusive)
6 | Cc1ccc(-c2nn(-c3ccccc3)cc2/C=N/n2c(S)nnc2-c2cccs2)cc1 |  | 82.8 µM (active) | 103 µM (active) | 10.3 µM (active) | CC50 [6]: 14.7 µM (active)
7 | COc1ccc(CCNC(=O)c2ccc(CNS(=O)(=O)c3ccc(C(C)(C)C)cc3)cc2)cc1OC |  | 35.9 µM (active) | > 150 µM (not active) |  | 
8 | CCN=C(S)N1CCC(NC(=O)C2CCCCC2)CC1 | inconclusive |  |  |  | AC50 (Cytochrome P450 2C19): inconclusive
9 | COC(=O)N/N=C\C=C\c1ccc2c(c1)OCO2 | inconclusive |  |  |  | 
10 | COc1cccc(C(=O)NC(=S)Nc2ccccc2N2CCCCC2)c1 |  | > 150 µM (not active) | 41 µM (active) | 57.8 µM (active) | 
11 | Cc1ccc(-n2nnnc2SCC(=O)NNC(=O)c2ccco2)c(C)c1 | inconclusive |  |  |  | 
12 | COc1ccc(S(=O)(=O)N2CCN(C(=O)c3cc(-c4ccc(Br)cc4)[nH]n3)CC2)cc1OC |  |  |  |  | AC50 [3]: 4.55 µM (active); AC50 [4]: 4.76 µM (active); AC50 [5]: 55.6 µM (active)
13 | CCOc1ccc(/C=N/Nc2nc(N3CCCC3)nc(N3CCCC3)n2)cc1OC | inconclusive |  |  |  | AC50 (Cytochrome P450 1A2): 39.8 µM (inconclusive); AC50 (Cytochrome P450 2C19; read-out: AC50): 39.8 µM (inconclusive)
14 | Cc1nc(N)sc1-c1csc(N(C)c2ccc(O)cc2)n1 |  | 95.2 µM (active) | > 150 µM (not active) | 5.24 µM (active) | EC50 [8]: > 53 µM (inactive); IC50 [9]: > 47.1 µM (inactive)
15 | COc1ccc(/C=C2/Sc3ccc(C(=O)N4CCc5ccccc5C4)cc3NC2=O)cc1 |  | 4.98 µM (active) | > 150 µM (not active) | 1.73 µM (active) | 
16 | CC(C)(C)n1nnnc1C(c1cccs1)N1CCCC2(CCCCC2)C1 (stereo not drawn) |  |  |  |  | AC50 [3]: 21.7 µM (active); AC50 [5]: > 70 µM (inactive); EC50 [10]: 2.15 µM (active); EC50 [11]: > 60 µM (not active)

Row | SMILES | AC50 (Cytochrome P450 2C9) | EC50 (Streptococcus) | EC50 (Streptokinase A) | EC50 [7] | also measured
17 | COc1ccccc1N(C)S(=O)(=O)c1ccc(C(=O)Nc2cc(F)ccc2C)cc1 |  |  |  |  | AC50 [3]: 13.8 µM (active); AC50 [4]: 26.5 µM (active); AC50 [5]: > 70 µM (inactive)
18 | Cc1nnc(NC(=O)c2ccc(S(=O)(=O)N(C)Cc3ccccc3)cc2)o1 |  | 17 µM (active) | > 150 µM (not active) | 4.98 µM (active) | EC50 [1]: 21.7 µM (active); EC50 [2]: 2.21 µM (active)
19 | CCCOc1ccc(C2C(C(=O)c3cc4ccccc4o3)=C(O)C(=O)N2c2cc(C)on2)cc1OC (stereo not drawn) |  | 5.24 µM (active) | > 150 µM (not active) | 1.2 µM (active) | 
20 | CCOC(=O)c1c(NC(=O)CCc2ccc(CC)o2)sc(C)c1C | inconclusive |  |  |  | 
21 | CC(C)[C@@H](C(=O)NC1CCCC1)N1C(=O)N2CCc3c([nH]c4ccccc34)[C@@]2(C)C1=O |  | > 150 µM (not active) | > 150 µM (not active) | 30.2 µM (active) | 
22 | CSC(=Nc1ccc(F)c(Cl)c1)NS(=O)(=O)c1cccs1 |  |  |  |  | EC50 [1]: > 150 µM (inactive); EC50 [2]: 0.805 µM (active)
23 | COc1ccc(-c2cc3nc(-c4ccccc4)cc(N4CCCC(O)C4)n3n2)cc1 (stereo not drawn) |  | 14.3 µM (active) | > 150 µM (not active) | 6.75 µM (active) | 
24 | N=c1c2c(-c3ccccc3)c(-c3ccccc3)oc2ncn1Cc1ccco1 |  | 30.3 µM (active) | 17.5 µM (active) | 6.44 µM (active) | 
25 | CCN(CC)C(=O)C1CCN(S(=O)(=O)c2ccc3oc4ccccc4c3c2)CC1 | inconclusive |  |  |  | AC50 [3]: 3.96 µM (active); AC50 [4]: 10.1 µM (active); AC50 (Cytochrome P450 3A4): 3.98 µM (inconclusive); AC50 [5]: > 70 µM (inactive)
26 | CO/N=C/C(=C\Nc1ccc(Cl)cc1Cl)c1ncc(C(F)(F)F)cc1Cl |  |  |  |  | EC50 [1]: > 160 µM (inconclusive)
27 | CCCCCOc1ccc(Br)cc1CSC(=N)N |  |  |  |  | AC50 [3]: 1.47 µM (active); AC50 [4]: 10.5 µM (active); AC50 [5]: 11.3 µM (active)
28 | COc1ccc(OC)c(S(=O)(=O)N2CCC(C(=O)Nc3ccc(C)c(C)c3)CC2)c1 | inconclusive |  |  |  | AC50 (Cytochrome P450 1A2): 12.6 µM (inconclusive)
29 | CCN(CC)c1ccc(/C=N/Nc2nc3ccccc3[nH]2)cc1 |  |  |  |  | EC50 [1]: 6.64 µM (active); EC50 [12]: 2.96 µM (active); EC50 [13]: 2.76 µM (active); EC50 [2]: > 38 µM (not active)
30 | NC(S)=Nc1cccc2cccnc12 | inconclusive |  |  |  | 
31 | CCOC(=O)c1c(NC(S)=NCCc2ccccc2)sc2c1CC(C(C)C)OC2 (stereo not drawn) |  | 15.1 µM (active) | > 150 µM (not active) | 0.814 µM (active) | 
32 | Cc1ccc2cc3cc(C(=O)N4CCC5(CC4)OCCO5)oc3nc2c1 | inconclusive |  |  |  | 

— ChEMBL document CHEMBL1201862, “PubChem BioAssay data set” (2004)
